The source of these data is patent US11548860B2, “Pharmacophores, compounds and methods having application in the treatment of cancer through inhibition of CYP17A1 and CYP19A1” (MANGOSUTHU UNIVERSITY OF TECHNOLOGY, priority 2015, dated 2023).

Where only a bound is given, the exact number is not on record here.

The target in one data set is CYP17A1 (Homo sapiens (Human), UniProt P05093). As to the kind of experiment: CYP17A1 inhibition, CYP17A1 bactosomes, progesterone substrate, LC-MS/MS. It is filed as biochemical. Conditions: for IC50: 0.1 μM progesterone, 20 min, 37° C.; for inhibitory potency of CYP17A1, level in words: Table 2.
CYP17A1, sequence (P05093 whole entry): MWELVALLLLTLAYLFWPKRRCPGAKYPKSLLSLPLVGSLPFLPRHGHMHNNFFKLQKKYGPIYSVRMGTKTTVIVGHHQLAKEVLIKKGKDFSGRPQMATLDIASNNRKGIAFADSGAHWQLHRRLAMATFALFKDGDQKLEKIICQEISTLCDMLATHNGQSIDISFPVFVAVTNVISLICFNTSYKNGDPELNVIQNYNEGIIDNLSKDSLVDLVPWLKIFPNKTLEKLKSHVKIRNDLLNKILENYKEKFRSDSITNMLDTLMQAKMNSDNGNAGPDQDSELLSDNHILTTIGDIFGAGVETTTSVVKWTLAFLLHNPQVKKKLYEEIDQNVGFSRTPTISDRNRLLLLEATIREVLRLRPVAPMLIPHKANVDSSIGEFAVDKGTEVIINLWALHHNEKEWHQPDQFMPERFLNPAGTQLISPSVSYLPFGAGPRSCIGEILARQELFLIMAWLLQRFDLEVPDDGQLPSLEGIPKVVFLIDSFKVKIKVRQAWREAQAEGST
The next data set addresses CYP1A2 (Homo sapiens (Human), UniProt P05177). Description: CYP inhibition against major 5 human liver CYPs in E. coli CYPEX membranes: CYP1A2 (tacrine). It is filed as in vitro ADME. The settings on record: bactosome mix, 10 min, 37° C. The procedure: (§1) Test compounds and control inhibitors were prepared as stocks in DMSO from the solid compound. The stocks were diluted in 0.1 M phosphate buffer (pH 7.4) at four times the final concentration prior to addition into the incubation tubes. The final DMSO concentration was 1%. […] Catalogue number CYP/XG001, Batch XG001001). Selective and FDA accepted substrates for each isoform were used at a concentration around the Km for each substrate. Activity of each isoform was assessed by measuring the appearance of an isoform-specific metabolite. A cocktail of 5 isoform-specific inhibitors was used as a positive control. […] Reactions were stopped by addition of 100 μl MeOH/1 μM Tolbutamide (internal standard). The quenched samples were mixed thoroughly and protein precipitated at −20° C. overnight. Samples were centrifuged at 2,500×g (3,400 rpm) for 20 minutes, 4° C. The supernatants were transferred to a 96 well-plate and analysed by LC-MS/MS. […] The LC-MS/MS peak responses (CYP metabolite peak area/internal standard peak area) for each test compound or positive control inhibitor were used and the response for each sample was expressed as a percentage of an uninhibited control (DMSO incubation).

In another data set the target is CYP2C9 (Homo sapiens (Human), UniProt P11712). As to the kind of experiment: CYP inhibition against major 5 human liver CYPs in E. coli CYPEX membranes: CYP2C9 (diclofenac). It is filed as in vitro ADME. The settings on record: bactosome mix, 10 min, 37° C.
CYP2C9, sequence (P11712 whole entry): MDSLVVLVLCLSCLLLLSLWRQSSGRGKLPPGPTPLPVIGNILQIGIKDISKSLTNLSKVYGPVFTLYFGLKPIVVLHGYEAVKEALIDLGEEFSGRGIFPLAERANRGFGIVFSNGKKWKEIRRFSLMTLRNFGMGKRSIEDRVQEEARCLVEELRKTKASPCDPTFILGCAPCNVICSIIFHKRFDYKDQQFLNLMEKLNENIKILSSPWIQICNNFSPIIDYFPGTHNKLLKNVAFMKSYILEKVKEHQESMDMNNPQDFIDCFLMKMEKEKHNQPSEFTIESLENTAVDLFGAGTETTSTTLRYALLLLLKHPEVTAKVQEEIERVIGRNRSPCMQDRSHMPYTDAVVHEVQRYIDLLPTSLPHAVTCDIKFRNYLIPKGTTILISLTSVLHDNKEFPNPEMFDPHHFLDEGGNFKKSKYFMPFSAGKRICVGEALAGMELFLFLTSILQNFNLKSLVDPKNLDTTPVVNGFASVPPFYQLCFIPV
A further data set concerns the target CYP2C19 (Homo sapiens (Human), UniProt P33261). Description: CYP inhibition against major 5 human liver CYPs in E. coli CYPEX membranes: CYP2C19 ((S)-mephenytoin). It is filed as in vitro ADME. Conditions: bactosome mix, 10 min, 37° C. The procedure:
as §1

Another data set addresses CYP2D6 (Homo sapiens (Human), UniProt P10635). As to the kind of experiment: CYP inhibition against major 5 human liver CYPs in E. coli CYPEX membranes: CYP2D6 (bufuralol). Conditions: bactosome mix, 10 min, 37° C. It is filed as in vitro ADME. How it is done: Test compounds and control inhibitors were prepared as stocks in DMSO from the solid compound. The stocks were diluted in 0.1 M phosphate buffer (pH 7.4) at four times the final concentration prior to addition into the incubation tubes. The final DMSO concentration was 1%. […] Catalogue number CYP/XG001, Batch XG001001). Selective and FDA accepted substrates for each isoform were used at a concentration around the Km for each substrate. Activity of each isoform was assessed by measuring the appearance of an isoform-specific metabolite. A cocktail of 5 isoform-specific inhibitors was used as a positive control. […] Reactions were stopped by addition of 100 μl MeOH/1 μM Tolbutamide (internal standard). The quenched samples were mixed thoroughly and protein precipitated at −20° C. overnight. Samples were centrifuged at 2,500×g (3,400 rpm) for 20 minutes, 4° C. The supernatants were transferred to a 96 well-plate and analysed by LC-MS/MS. The following LC-MS/MS conditions were used to analyse the 5CYP inhibition samples: • Column: Waters ACE Excel C18-AR, 50×2.1 mm, 2 μm • Mobile phase A: MilliQ water+0.1% formic acid • Mobile phase B: Methanol+0.1% formic acid • Flow rate: 0.8 ml/min The CYP activities for each test compound/positive control inhibitor at each concentration were converted to % of control activity (CA). The LC-MS/MS peak responses (CYP metabolite peak area/internal standard peak area) for each test compound or positive control inhibitor were used and the response for each sample was expressed as a percentage of an uninhibited control (DMSO incubation).

The next data set deals with CYP3A4 (Homo sapiens (Human), UniProt P08684). As to the kind of experiment: CYP inhibition against major 5 human liver CYPs in E. coli CYPEX membranes: CYP3A4 (midazolam). It is filed as in vitro ADME. Conditions: bactosome mix, 10 min, 37° C. The procedure:
as §1

A further data set in a line: Solubility in DMSO. It is filed as physicochemical.
The nature of data set [1]: Toxicity studies on the molecules in Table 2.
The next data set has as its target CYP19A1 (Homo sapiens (Human), UniProt P11511). Description: CYP19A1 inhibition, CYP19/MFC High Throughput Inhibitor Screen Kit, fluorescence. The class given is biochemical. The settings on record: for IC50 values against CYP19A1, potency level in words: Table 2. How it is done:
Test compounds and control inhibitors were prepared as stocks in either Acetonitrile or DMSO from the solid compound. Compounds were serially diluted in ½ log steps in the same solvent. CYP19A1 inhibition experiments were performed using the CYP19/MFC High Throughput Inhibitor Screen Kit (Corning). Test compounds were tested in seven concentrations: […] CYP19A1 reactions were performed in black 96 well-plates (Greiner) according to the manufacturer's instructions. […] Final organic solvent concentrations were either 4% (v/v) acetonitrile or 0.5% (v/v) Dimethyl sulfoxide. The plates were covered with self-adhesive film lids and incubated for 10 minutes at 37° C. Reactions were terminated by the addition of 75 μl Stop Solution (100 mM Tris base in acetonitrile: MilliQ water (80:20). […] The CYP activities for each test compound/positive control inhibitor at each concentration were converted to % of control activity (CA). The LC-MS/MS peak responses (CYP metabolite peak area/internal standard peak area) for each test compound or positive control inhibitor were used and the response for each sample was expressed as a percentage of an uninhibited control (DMSO incubation).

The subject of the next data set is CYP17A1 and CYP19A1. As to the kind of experiment: Classification as Dual Inhibitor (inhibitor of both CYP17A1 and CYP19A1). Conditions: inhibitors of both CYP17A1 and CYP19A1.
Data set [2] deals with CYP1A2, CYP2C9, CYP2C19, CYP2D6, and CYP3A4. As to the kind of experiment: Summary of inhibition of metabolic CYP450 isoforms (5 CYP panel). The class given is in vitro ADME, human. The settings on record: Table 2.

CYP19A1, sequence (P11511 whole entry): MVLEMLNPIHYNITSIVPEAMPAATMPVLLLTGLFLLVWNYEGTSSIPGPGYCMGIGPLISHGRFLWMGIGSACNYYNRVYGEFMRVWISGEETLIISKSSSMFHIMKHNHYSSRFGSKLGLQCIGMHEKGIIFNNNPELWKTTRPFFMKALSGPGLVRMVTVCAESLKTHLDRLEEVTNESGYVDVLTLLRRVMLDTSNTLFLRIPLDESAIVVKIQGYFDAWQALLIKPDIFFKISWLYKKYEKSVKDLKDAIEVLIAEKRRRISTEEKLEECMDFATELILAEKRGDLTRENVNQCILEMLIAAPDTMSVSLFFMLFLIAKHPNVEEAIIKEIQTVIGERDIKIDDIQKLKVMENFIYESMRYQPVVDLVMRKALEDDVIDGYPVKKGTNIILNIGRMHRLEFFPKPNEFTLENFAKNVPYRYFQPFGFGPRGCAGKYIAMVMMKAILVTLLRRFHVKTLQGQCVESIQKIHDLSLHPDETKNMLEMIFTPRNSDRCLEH
CYP2D6, sequence (P10635 whole entry, canonical isoform): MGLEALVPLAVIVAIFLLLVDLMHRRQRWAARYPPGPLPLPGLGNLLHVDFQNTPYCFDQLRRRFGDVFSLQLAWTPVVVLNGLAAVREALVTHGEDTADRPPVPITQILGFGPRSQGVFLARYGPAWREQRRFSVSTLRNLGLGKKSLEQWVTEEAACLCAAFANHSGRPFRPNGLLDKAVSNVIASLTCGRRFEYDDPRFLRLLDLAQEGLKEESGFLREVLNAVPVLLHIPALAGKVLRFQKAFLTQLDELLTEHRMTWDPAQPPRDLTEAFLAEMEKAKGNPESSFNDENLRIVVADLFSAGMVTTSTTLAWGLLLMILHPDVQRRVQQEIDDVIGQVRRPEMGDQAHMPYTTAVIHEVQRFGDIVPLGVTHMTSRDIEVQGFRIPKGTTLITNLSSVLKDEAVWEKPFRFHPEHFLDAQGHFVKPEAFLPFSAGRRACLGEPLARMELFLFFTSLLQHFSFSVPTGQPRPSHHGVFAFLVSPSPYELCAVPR
CYP2C19, sequence (P33261 whole entry): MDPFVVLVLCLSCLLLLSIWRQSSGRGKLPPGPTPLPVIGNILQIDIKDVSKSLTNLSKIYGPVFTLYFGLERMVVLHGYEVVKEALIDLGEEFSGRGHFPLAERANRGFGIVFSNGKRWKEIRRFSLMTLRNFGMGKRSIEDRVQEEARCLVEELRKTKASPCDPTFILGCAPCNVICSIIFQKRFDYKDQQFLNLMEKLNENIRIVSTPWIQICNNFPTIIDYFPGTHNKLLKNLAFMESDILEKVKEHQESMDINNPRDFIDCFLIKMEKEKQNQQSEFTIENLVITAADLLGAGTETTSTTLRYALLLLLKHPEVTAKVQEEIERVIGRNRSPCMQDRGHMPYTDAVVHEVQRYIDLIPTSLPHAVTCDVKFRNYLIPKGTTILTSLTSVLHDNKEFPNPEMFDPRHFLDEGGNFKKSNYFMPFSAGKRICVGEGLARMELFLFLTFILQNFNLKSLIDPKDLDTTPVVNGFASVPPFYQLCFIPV
CYP3A4, sequence (P08684 whole entry): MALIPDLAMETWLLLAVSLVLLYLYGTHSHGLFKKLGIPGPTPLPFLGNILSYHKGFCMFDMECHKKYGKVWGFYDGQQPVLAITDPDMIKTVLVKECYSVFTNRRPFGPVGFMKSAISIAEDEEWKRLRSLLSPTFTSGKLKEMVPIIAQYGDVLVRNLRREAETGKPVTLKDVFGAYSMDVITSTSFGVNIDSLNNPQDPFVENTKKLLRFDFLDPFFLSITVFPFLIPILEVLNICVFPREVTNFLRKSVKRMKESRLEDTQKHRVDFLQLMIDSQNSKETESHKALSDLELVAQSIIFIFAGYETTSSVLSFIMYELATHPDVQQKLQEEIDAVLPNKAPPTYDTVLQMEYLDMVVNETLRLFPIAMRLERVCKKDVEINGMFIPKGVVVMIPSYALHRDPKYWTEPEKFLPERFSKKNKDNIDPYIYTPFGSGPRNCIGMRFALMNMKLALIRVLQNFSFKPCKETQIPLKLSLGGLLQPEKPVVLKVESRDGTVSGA
CYP1A2, sequence (P05177 whole entry, canonical isoform): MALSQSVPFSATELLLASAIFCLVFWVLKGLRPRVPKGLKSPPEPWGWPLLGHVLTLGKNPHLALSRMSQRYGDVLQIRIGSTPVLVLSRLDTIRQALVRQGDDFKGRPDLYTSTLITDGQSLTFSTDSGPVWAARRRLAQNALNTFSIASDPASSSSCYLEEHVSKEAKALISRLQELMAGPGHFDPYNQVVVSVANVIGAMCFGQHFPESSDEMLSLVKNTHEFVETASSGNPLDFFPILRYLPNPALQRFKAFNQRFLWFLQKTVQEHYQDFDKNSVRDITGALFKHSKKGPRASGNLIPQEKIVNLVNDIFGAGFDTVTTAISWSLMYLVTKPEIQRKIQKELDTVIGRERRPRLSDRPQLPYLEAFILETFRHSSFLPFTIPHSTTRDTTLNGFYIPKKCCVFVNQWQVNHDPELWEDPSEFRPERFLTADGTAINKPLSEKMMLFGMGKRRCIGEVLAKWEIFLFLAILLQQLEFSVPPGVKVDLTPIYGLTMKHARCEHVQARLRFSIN

In the case of `CCCC(=O)Nc1ccc(C(=O)C(C)OC(=O)c2n[nH]c3ccccc23)cc1` (racemic) [Compound 6, 1-(4-butanamidophenyl)-1-oxopropan-2-yl-1H-indazole-3-carboxylate], the IC50 (commonly the point on the concentration scale where inhibition reaches its midpoint) at CYP17A1 was greater than 50 µM; at CYP1A2, greater than 50 µM; against CYP2C9, 2.5 µM; against CYP2C19, 41.2 µM; on CYP2D6, greater than 50 µM; on CYP3A4 it was greater than 50 µM. Also, the “inhibitory potency of CYP17A1, level in words” value (“inhibitory potency of CYP17A1” below) on CYP17A1 is reported as “micromolar levels”. Besides, the “Soluble in DMSO” value in the data set “Solubility in DMSO” was “Yes”. The safety profile entry in data set [1] is listed as “excellent safety profiles”.

As for `O=C1COc2cc(NC(=O)c3cc(NC(=O)c4cn[nH]c4)ccc3Cl)ccc2N1` [Compound 12, N-{4-chloro-3-[(3-oxo-3,4-dihydro-2H-1,4-benzoxazin-7-yl)carbamoyl]phenyl}-1H-pyrazole-4-carboxamide], the IC50 against CYP17A1 was greater than 50 µM; against CYP19A1 (25 μM MFC, 10 min, 37° C.), 0.06 µM; on CYP1A2, greater than 50 µM; against CYP2C9, 22.5 µM; at CYP2C19, greater than 50 µM; against CYP2D6, greater than 50 µM. On CYP3A4, this compound showed an IC50 of 18.3 µM. At CYP19A1, the “IC50 values against CYP19A1, potency level in words” value (“IC50 values against CYP19A1” for short) is “sub-micromolar inhibitory potency levels”. Besides, the “Soluble in DMSO” value in “Solubility in DMSO” is listed as “Yes”. Further, in data set [1], the safety profile entry is recorded as “excellent safety profiles”. The “Dual Inhibitor classification” value in the data set with CYP17A1 and CYP19A1 was “Dual Inhibitors”.

On to `O=C1COc2cc(NCc3cccc(NC(=O)c4ccccc4Cl)c3)c(Cl)cc2N1` [Compound 7, 2-chloro-N-(3-{[(6-chloro-3-oxo-3,4-dihydro-2H-1,4-benzoxazin-7-yl)amino]methyl}phenyl)benzamide], for which the “inhibitory potency of CYP17A1” value against CYP17A1 is given as “micromolar levels”. The “IC50 values against CYP19A1” value at CYP19A1 is given as “sub-micromolar inhibitory potency levels”. In addition, the “Soluble in DMSO” value in the data set “Solubility in DMSO” is “Yes”. Besides, the safety profile result in [1] was “excellent safety profiles”. Further, the “Dual Inhibitor classification” value with CYP17A1 and CYP19A1 is reported as “Dual Inhibitors”.

As to `O=C1COc2cc(NCc3cccc(C(=O)Nc4cccnc4)c3)ccc2N1` [Compound 10, 3-{[(3-oxo-3,4-dihydro-2H-1,4-benzoxazin-7-yl)amino]methyl}-N-(pyridin-3-yl)benzamide], the “inhibitory potency of CYP17A1” value against CYP17A1 is given as “micromolar levels”. The “IC50 values against CYP19A1” value on CYP19A1 is on record as “sub-micromolar inhibitory potency levels”. Besides, the “Soluble in DMSO” value in “Solubility in DMSO” is “Yes”. Also, the safety profile result in data set [1] is “excellent safety profiles”. For the same compound, the “Dual Inhibitor classification” value with CYP17A1 and CYP19A1 is recorded as “Dual Inhibitors”.

`Cc1cccc(C(=O)OCCOc2ccc(S(N)(=O)=O)cc2)c1N` [Compound 4, 2-(4-sulfamoylphenoxy) ethyl 2-amino-3-methylbenzoate] returned an IC50 on CYP2D6 of 3.3 µM. Also, the “Soluble in DMSO” value in “Solubility in DMSO” is recorded as “Yes”. The safety profile result in [1] is on record as “reasonably good safety profiles”. In addition, the “inhibition of various CYP450 isoforms (drug-drug interaction)” value in data set [2] was “inhibit various CYP450 isoforms”.

As for `O=C1COc2cc(NCc3cccc(C(=O)Nc4cccnc4)c3)c(Cl)cc2N1` [Compound 13, 3-{[(6-chloro-3-oxo-3,4-dihydro-2H-1,4-benzoxazin-7-yl)amino]methyl}-N-(pyridin-3-yl)benzamide], the “IC50 values against CYP19A1” value against CYP19A1 is “sub-micromolar inhibitory potency levels”. Also, in the data set “Solubility in DMSO”, the “Soluble in DMSO” value was “Yes”. For the same compound, the safety profile result in data set [1] is listed as “reasonably good safety profiles”. Besides, in data set [2], the “inhibition of various CYP450 isoforms (drug-drug interaction)” value is “inhibit various CYP450 isoforms”. Besides, the “Dual Inhibitor classification” value in the data set with CYP17A1 and CYP19A1 is reported as “Dual Inhibitors”.
